From publication PMC6072100, “Exploring the links between peptoid antibacterial activity and toxicity” (MedChemComm, 2017)
Read-outs that look alike come from different tables or passages of the source. Square brackets hold non-standard residues; d marks the D form. Peptide text beside a SMILES is read from it. Gly(N-(CH2)6NH2) = NCCCCCCNCC(=O)O; Gly(N-2-aminoethyl) = NCCNCC(=O)O; Nspe = C[C@H](NCC(=O)O)c1ccccc1; Nphe = O=C(O)CNCc1ccccc1; Nlys = NCCCCNCC(=O)O

Key:
Format in all cases: cell-based
[1] = test system: Escherichia coli K-12 wild-type strain (W3110/ATCC27325); conditions: lowest concentration completely inhibiting growth, 37 °C, 16 h; range 2–100 μM
Procedure: (§1) Escherichia coli K-12 wild-type strain (W3110/ATCC27325, F^–, λ^–, rpoS(Am), rph-1, Inv(rrnD-rrnE)), Pseudomonas aeruginosa PA01 (ATCC 15692) Staphylococcus aureus (3R7089 strain Oxford/ATCC9144) and Staphylococcus epidermidis (laboratory strain from clinical isolate) were selected for bacteriological studies as representative Gram-negative (E. coli and P. aeruginosa) and Gram-positive (S. aureus and S. epidermidis) species. Bacterial cultures were prepared by streaking bacterial strains onto LB agar plates with an inoculation loop and incubated overnight at 37 °C. A single colony was selected and placed in 5 mL of Iso-sensitest broth (Oxoid, ThermoScientific) and incubated with shaking for 16–18 h at 37 °C to provide liquid cultures for testing.
(§2) MIC values were obtained according to the protocol described by J. M. Andrews et al.[58] and were conducted in 96-well plates (Sarstedt). Bacteria were grown from overnight cultures in Iso-sensitest broth to an A650nm of 0.07 equivalent to a 0.5 MacFarland standard (240 μM BaCl2 in 0.18 M H2SO4). This culture was diluted ten-fold with Iso-sensitest broth before use. Peptoids were initially dissolved in DMSO (5 mM) and diluted further in Iso-sensitest broth to achieve a concentration range of 4–200 μM using 2-fold serial dilutions. 50 μl of inoculum and 50 μl of peptoid solution were added to each test well (final concentration range of 2–100 μM). Experiments were performed in triplicate. A positive control for bacterial growth contained only the inoculum and Iso-sensitest broth. Other controls contained the inoculum and serial dilutions of ampicillin (from 250 μg mL^–1 to 2 μg mL^–1), serial dilutions of DMSO and the inoculum to confirm no inhibitory effect on bacterial growth, and Iso-sensitest broth alone as a sterile control. […] Quantitative data was attained from absorbance values using a Biotek Synergy H4 plate reader.
(§3) Antibacterial MIC determination
as §1, with “(W3110 / ATCC27325, F-, λ-,” for “(W3110/ATCC27325, F^–, λ^–,”, “Oxford / ATCC9144)” for “Oxford/ATCC9144)”, “°C.” for “°C. A single colony was selected and placed in 5 mL of Iso-sensitest broth (Oxoid, ThermoScientific) and incubated with shaking for 16–18 h at 37 °C to provide liquid cultures for testing.”
(§4) A single colony was selected and placed in 5 mL of Iso-sensitest broth (Oxoid, ThermoScientific) and incubated with shaking for 16-18 h at 37 °C to provide liquid […]
(§5) MIC values were obtained according to the protocol described by J. M. Andrews et al.1 and were conducted in 96-well plates (Sarstedt). Bacteria were grown from overnight cultures in Iso-sensitest broth to an A650nm of 0.07 equivalent to a 0.5 MacFarland standard (240 μM BaCl2 in 0.18 M H2SO4). This culture was diluted ten-fold with Iso-sensitest broth before use. Peptoids were initially dissolved in DMSO (5 mM) and diluted further in Iso-sensitest broth to achieve a concentration range of 4 – 200 µM using 2-fold serial dilutions. 50 μl of inoculum and 50 μl of peptoid solution were added to each test well (final concentration range of 2 – 100 µM). Experiments were performed in triplicate. A positive control for bacterial growth contained only the inoculum and Iso-sensitest broth. Other controls contained the inoculum and serial dilutions of ampicillin (from 250 µg/mL to 2 µg/mL), serial dilutions of DMSO and the inoculum to confirm no inhibitory effect on bacterial growth, and Iso-sensitest broth alone as a sterile control. […]
(§6) growth after incubation at 37 °C for 16 h with shaking. Quantitative data was attained from absorbance values using a Biotek Synergy H4 plate reader.

[2] = test system: Pseudomonas aeruginosa PA01 (ATCC 15692)
Procedure: as §1, §2, §3
as §1, with “(W3110 / ATCC27325, F-, λ-,” for “(W3110/ATCC27325, F^–, λ^–,”, “Oxford / ATCC9144)” for “Oxford/ATCC9144)”, “°C.” for “°C. A single colony was selected and placed in 5 mL of Iso-sensitest broth (Oxoid, ThermoScientific) and incubated with shaking for 16–18 h at 37 °C to provide liquid cultures for testing.”
as §4, §5, §6

[3] = test system: Staphylococcus aureus (3R7089 strain Oxford/ATCC9144)
Procedure: as §1, §2, §3
as §1, with “(W3110 / ATCC27325, F-, λ-,” for “(W3110/ATCC27325, F^–, λ^–,”, “Oxford / ATCC9144)” for “Oxford/ATCC9144)”, “°C.” for “°C. A single colony was selected and placed in 5 mL of Iso-sensitest broth (Oxoid, ThermoScientific) and incubated with shaking for 16–18 h at 37 °C to provide liquid cultures for testing.”
as §4, §5, §6

[4] = test system: Staphylococcus epidermidis (laboratory strain from clinical isolate); conditions: 16 h
Procedure: as §1, §2, §3
as §1, with “(W3110 / ATCC27325, F-, λ-,” for “(W3110/ATCC27325, F^–, λ^–,”, “Oxford / ATCC9144)” for “Oxford/ATCC9144)”, “°C.” for “°C. A single colony was selected and placed in 5 mL of Iso-sensitest broth (Oxoid, ThermoScientific) and incubated with shaking for 16–18 h at 37 °C to provide liquid cultures for testing.”
as §4, §5, §6

[5] = laboratory strain from clinical isolate
[6] = lowest concentration completely inhibiting growth, 37 °C, 16 h, range 2–100 μM
[7] = lowest concentration completely inhibiting growth, 37 °C, range 2–100 μM

NCCCCCCNCC(=O)N(CC(=O)N(CC(=O)N(CCCCCCN)CC(=O)N(CC(=O)N(CC(=O)N(CCCCCCN)CC(=O)N(CC(=O)N(CC(=O)N(CCCCCCN)CC(=O)N(CC(=O)N(CC(N)=O)Cc1ccccc1)Cc1ccccc1)Cc1ccccc1)Cc1ccccc1)Cc1ccccc1)Cc1ccccc1)Cc1ccccc1)Cc1ccccc1 [Peptoid 1, (NahNpheNphe)4] (H-[Gly(N-(CH2)6NH2)][Nphe][Nphe][Gly(N-(CH2)6NH2)][Nphe][Nphe][Gly(N-(CH2)6NH2)][Nphe][Nphe][Gly(N-(CH2)6NH2)][Nphe][Nphe]-NH2)
MIC E. coli [1]: 13 µM | MIC P. aeruginosa ([2]; ATCC 15692, 16 h): >100 µM

NCCCCCCNCC(=O)N(CC(=O)N(CC(=O)N(CCCCCCN)CC(=O)N(CC(=O)N(CC(=O)N(CCCCCCN)CC(=O)N(CC(=O)N(CC(N)=O)Cc1ccccc1)Cc1ccccc1)Cc1ccccc1)Cc1ccccc1)Cc1ccccc1)Cc1ccccc1 [Peptoid 2, (NahNpheNphe)3] (H-[Gly(N-(CH2)6NH2)][Nphe][Nphe][Gly(N-(CH2)6NH2)][Nphe][Nphe][Gly(N-(CH2)6NH2)][Nphe][Nphe]-NH2)
MIC E. coli [1]: 50 µM | MIC P. aeruginosa ([2]; ATCC 15692, 16 h): >100 µM

NCCCCCCNCC(=O)N(CC(=O)N(CC(=O)N(CCCCCCN)CC(=O)N(CC(=O)N(CC(N)=O)Cc1ccccc1)Cc1ccccc1)Cc1ccccc1)Cc1ccccc1 [Peptoid 3, (NahNpheNphe)2] (H-[Gly(N-(CH2)6NH2)][Nphe][Nphe][Gly(N-(CH2)6NH2)][Nphe][Nphe]-NH2)
MIC S. aureus ([3]; ATCC9144, 16 h): >100 µM | MIC S. epidermidis [4, 5]: >100 µM | MIC E. coli [1]: >100 µM | MIC P. aeruginosa ([2]; ATCC 15692, 16 h): >100 µM

NCCCCNCC(=O)N(CC(=O)N(CC(=O)N(CCCCN)CC(=O)N(CC(=O)N(CC(=O)N(CCCCN)CC(=O)N(CC(=O)N(CC(=O)N(CCCCN)CC(=O)N(CC(=O)N(CC(N)=O)Cc1ccccc1)Cc1ccccc1)Cc1ccccc1)Cc1ccccc1)Cc1ccccc1)Cc1ccccc1)Cc1ccccc1)Cc1ccccc1 [Peptoid 4, (NLysNpheNphe)4] (H-[Nlys][Nphe][Nphe][Nlys][Nphe][Nphe][Nlys][Nphe][Nphe][Nlys][Nphe][Nphe]-NH2)
MIC S. aureus [3, 6]: 3 µM | MIC S. epidermidis [4, 7]: 2 µM | MIC E. coli [1]: 13 µM | MIC P. aeruginosa [2, 6]: 50 µM

NCCCCNCC(=O)N(CC(=O)N(CC(=O)N(CCCCN)CC(=O)N(CC(=O)N(CC(=O)N(CCCCN)CC(=O)N(CC(=O)N(CC(N)=O)Cc1ccccc1)Cc1ccccc1)Cc1ccccc1)Cc1ccccc1)Cc1ccccc1)Cc1ccccc1 [Peptoid 5, (NLysNpheNphe)3]
MIC S. aureus [3, 6]: 25 µM | MIC S. epidermidis [4, 7]: 6 µM | MIC E. coli [1]: 50 µM | MIC P. aeruginosa ([2]; ATCC 15692, 16 h): >100 µM | MIC P. aeruginosa [2, 6]: 100 µM

NCCCCNCC(=O)N(CC(=O)N(CC(=O)N(CCCCN)CC(=O)N(CC(=O)N(CC(N)=O)Cc1ccccc1)Cc1ccccc1)Cc1ccccc1)Cc1ccccc1 [Peptoid 6, (NLysNpheNphe)2] (H-[Nlys][Nphe][Nphe][Nlys][Nphe][Nphe]-NH2)
MIC S. aureus ([3]; ATCC9144, 16 h): >100 µM | MIC S. aureus [3, 6]: 100 µM | MIC S. epidermidis [4, 5]: >100 µM | MIC S. epidermidis [4, 7]: 100 µM | MIC E. coli [1]: >100 µM | MIC P. aeruginosa ([2]; ATCC 15692, 16 h): >100 µM | MIC P. aeruginosa [2, 6]: 100 µM

NCCNCC(=O)N(CC(=O)N(CC(=O)N(CCN)CC(=O)N(CC(=O)N(CC(=O)N(CCN)CC(=O)N(CC(=O)N(CC(=O)N(CCN)CC(=O)N(CC(=O)N(CC(N)=O)Cc1ccccc1)Cc1ccccc1)Cc1ccccc1)Cc1ccccc1)Cc1ccccc1)Cc1ccccc1)Cc1ccccc1)Cc1ccccc1 [Peptoid 7, (NaeNpheNphe)4] (H-[Gly(N-2-aminoethyl)][Nphe][Nphe][Gly(N-2-aminoethyl)][Nphe][Nphe][Gly(N-2-aminoethyl)][Nphe][Nphe][Gly(N-2-aminoethyl)][Nphe][Nphe]-NH2)
MIC S. aureus [3, 6]: 2 µM | MIC S. epidermidis [4, 7]: 6 µM | MIC E. coli [1]: 13 µM | MIC P. aeruginosa [2, 6]: 50 µM

NCCNCC(=O)N(CC(=O)N(CC(=O)N(CCN)CC(=O)N(CC(=O)N(CC(=O)N(CCN)CC(=O)N(CC(=O)N(CC(N)=O)Cc1ccccc1)Cc1ccccc1)Cc1ccccc1)Cc1ccccc1)Cc1ccccc1)Cc1ccccc1 [Peptoid 8, (NaeNpheNphe)3] (H-[Gly(N-2-aminoethyl)][Nphe][Nphe][Gly(N-2-aminoethyl)][Nphe][Nphe][Gly(N-2-aminoethyl)][Nphe][Nphe]-NH2)
MIC S. aureus [3, 6]: 13 µM | MIC S. epidermidis [4, 5]: >100 µM | MIC S. epidermidis [4, 7]: 100 µM | MIC E. coli [1]: >100 µM | MIC P. aeruginosa ([2]; ATCC 15692, 16 h): >100 µM | MIC P. aeruginosa [2, 6]: 100 µM

NCCNCC(=O)N(CC(=O)N(CC(=O)N(CCN)CC(=O)N(CC(=O)N(CC(N)=O)Cc1ccccc1)Cc1ccccc1)Cc1ccccc1)Cc1ccccc1 [Peptoid 9, (NaeNpheNphe)2] (H-[Gly(N-2-aminoethyl)][Nphe][Nphe][Gly(N-2-aminoethyl)][Nphe][Nphe]-NH2)
MIC S. aureus ([3]; ATCC9144, 16 h): >100 µM | MIC S. aureus [3, 6]: 100 µM | MIC S. epidermidis [4, 5]: >100 µM | MIC S. epidermidis [4, 7]: 100 µM | MIC E. coli [1]: >100 µM | MIC P. aeruginosa ([2]; ATCC 15692, 16 h): >100 µM | MIC P. aeruginosa [2, 6]: 100 µM

C[C@@H](c1ccccc1)N(CC(N)=O)C(=O)CN(C(=O)CN(CCCCCCN)C(=O)CN(C(=O)CN(C(=O)CN(CCCCCCN)C(=O)CN(C(=O)CN(C(=O)CN(CCCCCCN)C(=O)CN(C(=O)CN(C(=O)CNCCCCCCN)[C@@H](C)c1ccccc1)[C@@H](C)c1ccccc1)[C@@H](C)c1ccccc1)[C@@H](C)c1ccccc1)[C@@H](C)c1ccccc1)[C@@H](C)c1ccccc1)[C@@H](C)c1ccccc1 [Peptoid 10, (NahNspeNspe)4] (H-[Gly(N-(CH2)6NH2)][Nspe][Nspe][Gly(N-(CH2)6NH2)][Nspe][Nspe][Gly(N-(CH2)6NH2)][Nspe][Nspe][Gly(N-(CH2)6NH2)][Nspe][Nspe]-NH2; N-terminus assumed)
MIC S. aureus [3, 6]: 2 µM | MIC S. epidermidis [4, 7]: 2 µM | MIC E. coli [1]: 25 µM | MIC P. aeruginosa [2, 6]: 50 µM

C[C@@H](c1ccccc1)N(CC(N)=O)C(=O)CN(C(=O)CN(CCCCCCN)C(=O)CN(C(=O)CN(C(=O)CN(CCCCCCN)C(=O)CN(C(=O)CN(C(=O)CNCCCCCCN)[C@@H](C)c1ccccc1)[C@@H](C)c1ccccc1)[C@@H](C)c1ccccc1)[C@@H](C)c1ccccc1)[C@@H](C)c1ccccc1 [Peptoid 11, (NahNspeNspe)3] (H-[Gly(N-(CH2)6NH2)][Nspe][Nspe][Gly(N-(CH2)6NH2)][Nspe][Nspe][Gly(N-(CH2)6NH2)][Nspe][Nspe]-NH2)
MIC E. coli [1]: 25 µM | MIC P. aeruginosa ([2]; ATCC 15692, 16 h): >100 µM

C[C@@H](c1ccccc1)N(CC(N)=O)C(=O)CN(C(=O)CN(CCCCCCN)C(=O)CN(C(=O)CN(C(=O)CNCCCCCCN)[C@@H](C)c1ccccc1)[C@@H](C)c1ccccc1)[C@@H](C)c1ccccc1 [Peptoid 12, (NahNspeNspe)2]
MIC S. aureus ([3]; ATCC9144, 16 h): >100 µM | MIC E. coli [1]: >100 µM | MIC P. aeruginosa ([2]; ATCC 15692, 16 h): >100 µM

C[C@@H](c1ccccc1)N(CC(N)=O)C(=O)CN(C(=O)CN(CCCCN)C(=O)CN(C(=O)CN(C(=O)CN(CCCCN)C(=O)CN(C(=O)CN(C(=O)CN(CCCCN)C(=O)CN(C(=O)CN(C(=O)CNCCCCN)[C@@H](C)c1ccccc1)[C@@H](C)c1ccccc1)[C@@H](C)c1ccccc1)[C@@H](C)c1ccccc1)[C@@H](C)c1ccccc1)[C@@H](C)c1ccccc1)[C@@H](C)c1ccccc1 [Peptoid 13, (NLysNspeNspe)4] (H-[Nlys][Nspe][Nspe][Nlys][Nspe][Nspe][Nlys][Nspe][Nspe][Nlys][Nspe][Nspe]-NH2)
MIC S. aureus [3, 6]: 2 µM | MIC S. epidermidis [4, 7]: 1 µM | MIC E. coli [1]: 25 µM | MIC P. aeruginosa [2, 6]: 50 µM
